From ChEMBL document CHEMBL1926636, “Isoxazoles incorporated N-substituted decahydroquinolines: a precursor to the next generation antimicrobial drug” (2012)
Values after ≈ are worked out from the molar mass of the structure shown.

What was measured:
Aspergillus fumigatus [1] = test: Antifungal activity against Aspergillus fumigatus ATCC 28212 by twofold serial dilution technique; format: functional
Candida albicans [2] = test: Antifungal activity against Candida albicans ATCC 90028 at 10 ug/mL after 72 hrs by agar cup plate method; format: functional; conditions: ATCC 90028, 72 h, read-out: IZ
Candida albicans [3] = test: Antifungal activity against Candida albicans ATCC 90028 by twofold serial dilution technique; format: functional
Candida albicans [4] = test: Antifungal activity against Candida albicans PYCC 3436 at 10 ug/mL after 72 hrs by agar cup plate method; format: functional; conditions: PYCC 3436, 72 h, read-out: IZ
Aspergillus fumigatus [5] = test: Antifungal activity against Aspergillus fumigatus ATCC 28212 at 10 ug/mL after 72 hrs by agar cup plate method; format: functional; conditions: ATCC 28212, 72 h, read-out: IZ
Candida albicans [6] = test: Antifungal activity against Candida albicans PYCC 3436 by twofold serial dilution technique; format: functional
Aspergillus niger [7] = test: Antifungal activity against Aspergillus niger ATCC 16404 by twofold serial dilution technique; format: functional
Aspergillus niger [8] = test: Antifungal activity against Aspergillus niger ATCC 16404 at 10 ug/mL after 72 hrs by agar cup plate method; format: functional; conditions: ATCC 16404, 72 h, read-out: IZ
Pseudomonas aeruginosa [9] = test: Antibacterial activity against Pseudomonas aeruginosa ATCC 9027 by twofold serial dilution technique; format: functional
Salmonella typhi [10] = test: Antibacterial activity against Salmonella typhi ATCC 6539 at 10 ug/mL after 24 hrs by disc diffusion method; format: functional, Salmonella enterica subsp. enterica serovar Typhi; conditions: Salmonella enterica, ATCC 6539, 24 h; read-out: IZ
Escherichia coli [11] = test: Antibacterial activity against Escherichia coli ATCC 35218 at 10 ug/mL after 24 hrs by disc diffusion method; format: functional; conditions: ATCC 35218, 24 h, read-out: IZ
Staphylococcus aureus [12] = test: Antibacterial activity against Staphylococcus aureus ATCC 6538 by twofold serial dilution technique; format: functional
[13] = tested on: Lysinibacillus sphaericus; test: Antibacterial activity against Bacillus sphaericus ATCC 7031 at 10 ug/mL after 24 hrs by disc diffusion method; format: functional; conditions: ATCC 7031, 24 h, read-out: IZ
Pseudomonas aeruginosa [14] = test: Antibacterial activity against Pseudomonas aeruginosa ATCC 9027 at 10 ug/mL after 24 hrs by disc diffusion method; format: functional; conditions: ATCC 9027, 24 h, read-out: IZ
Staphylococcus aureus [15] = test: Antibacterial activity against Staphylococcus aureus ATCC 6538 at 10 ug/mL after 24 hrs by disc diffusion method; format: functional; conditions: ATCC 6538, 24 h, read-out: IZ
Bacillus subtilis [16] = test: Antibacterial activity against Bacillus subtilis ATCC 6631 by twofold serial dilution technique; format: functional
Bacillus subtilis [17] = test: Antibacterial activity against Bacillus subtilis ATCC 6631 at 10 ug/mL after 24 hrs by disc diffusion method; format: functional; conditions: ATCC 6631, 24 h, read-out: IZ
[18] = tested on: Lysinibacillus sphaericus; test: Antibacterial activity against Bacillus sphaericus ATCC 7031 by twofold serial dilution technique; format: functional
Escherichia coli [19] = test: Antibacterial activity against Escherichia coli ATCC 35218 by twofold serial dilution technique; format: functional
Salmonella typhi [20] = test: Antibacterial activity against Salmonella typhi ATCC 6539 by twofold serial dilution technique; format: functional, Salmonella enterica subsp. enterica serovar Typhi; conditions: Salmonella enterica

| SMILES | MIC99 (Aspergillus fumigatus [1]) | zone of inhibition at 10 µg/mL (Candida albicans [2]) | MIC99 (Candida albicans [3]) | zone of inhibition at 10 µg/mL (Candida albicans [4]) | zone of inhibition at 10 µg/mL (Aspergillus fumigatus [5]) | MIC99 (Candida albicans [6]) | MIC99 (Aspergillus niger [7]) | zone of inhibition at 10 µg/mL (Aspergillus niger [8]) | MIC99 (Pseudomonas aeruginosa [9]) | zone of inhibition at 10 µg/mL (Salmonella typhi [10]) | zone of inhibition at 10 µg/mL (Escherichia coli [11]) | MIC99 (Staphylococcus aureus [12]) | zone of inhibition at 10 µg/mL [13] | zone of inhibition at 10 µg/mL (Pseudomonas aeruginosa [14]) | zone of inhibition at 10 µg/mL (Staphylococcus aureus [15]) | MIC99 (Bacillus subtilis [16]) | zone of inhibition at 10 µg/mL (Bacillus subtilis [17]) | MIC99 [18] | MIC99 (Escherichia coli [19]) | MIC99 (Salmonella typhi [20]) |
| --- | --- | --- | --- | --- | --- | --- | --- | --- | --- | --- | --- | --- | --- | --- | --- | --- | --- | --- | --- | --- |
| CC(=O)N1CCN(c2ccc(OCC3COC(Cn4ccnc4)(c4ccc(Cl)cc4Cl)O3)cc2)CC1 (stereo not given) [KETOCONAZOLE] | 7 µg/mL (≈ 13.2 µM) | 22 mm | 25 µg/mL (≈ 47 µM) | 22 mm | 10 mm | 7.8 µg/mL (≈ 14.7 µM) | 50 µg/mL (≈ 94.1 µM) | 25 mm | – | – | – | – | – | – | – | – | – | – | – | – |
| c1ccc(CN2C(c3ccccc3)C3=C(NOC3c3c[nH]c4ccccc34)C3CCCCC32)cc1 (stereo not given) | 25 µg/mL (≈ 54.2 µM) | 13 mm | 100 µg/mL (≈ 217 µM) | 11 mm | 5 mm | 50 µg/mL (≈ 108 µM) | > 100 µg/mL | 9 mm | 25 µg/mL (≈ 54.2 µM) | 7 mm | 7 mm | 50 µg/mL (≈ 108 µM) | 6 mm | 5 mm | 11 mm | > 100 µg/mL | 3 mm | 100 µg/mL (≈ 217 µM) | 25 µg/mL (≈ 54.2 µM) | > 100 µg/mL |
| c1ccc(CN2C(c3ccccc3)C3=C(NOC3c3ccccc3)C3CCCCC32)cc1 (stereo not given) | 100 µg/mL (≈ 237 µM) | 7 mm | > 100 µg/mL | 10 mm | 2 mm | 50 µg/mL (≈ 118 µM) | > 100 µg/mL | 4 mm | 100 µg/mL (≈ 237 µM) | 3 mm | 4 mm | 100 µg/mL (≈ 237 µM) | 11 mm | 3 mm | 10 mm | 100 µg/mL (≈ 237 µM) | 4 mm | 100 µg/mL (≈ 237 µM) | 100 µg/mL (≈ 237 µM) | > 100 µg/mL |
| c1ccc(CN2C(c3ccccc3)C3=C(NOC3c3ccco3)C3CCCCC32)cc1 (stereo not given) | 50 µg/mL (≈ 121 µM) | 12 mm | 100 µg/mL (≈ 242 µM) | 4 mm | 4 mm | 100 µg/mL (≈ 242 µM) | > 100 µg/mL | 4 mm | 50 µg/mL (≈ 121 µM) | 2 mm | 3 mm | 100 µg/mL (≈ 242 µM) | 12 mm | 4 mm | 5 mm | 50 µg/mL (≈ 121 µM) | 5 mm | 50 µg/mL (≈ 121 µM) | 100 µg/mL (≈ 242 µM) | > 100 µg/mL |
| c1ccc(CN2C(c3ccccc3)C3=C(NOC3c3ccc4c(c3)OCO4)C3CCCCC32)cc1 (stereo not given) | 50 µg/mL (≈ 107 µM) | 16 mm | 50 µg/mL (≈ 107 µM) | 6 mm | 4 mm | 100 µg/mL (≈ 214 µM) | 100 µg/mL (≈ 214 µM) | 11 mm | 25 µg/mL (≈ 53.6 µM) | 7 mm | 4 mm | 100 µg/mL (≈ 214 µM) | 11 mm | 5 mm | 8 mm | 100 µg/mL (≈ 214 µM) | 5 mm | 50 µg/mL (≈ 107 µM) | 50 µg/mL (≈ 107 µM) | > 100 µg/mL |
| O=[N+]([O-])c1cccc(C2ONC3=C2C(c2ccccc2)N(Cc2ccccc2)C2CCCCC32)c1 (stereo not given) | 12.5 µg/mL (≈ 26.7 µM) | 24 mm | 25 µg/mL (≈ 53.5 µM) | 16 mm | 5 mm | 25 µg/mL (≈ 53.5 µM) | 100 µg/mL (≈ 214 µM) | 21 mm | 25 µg/mL (≈ 53.5 µM) | 8 mm | 5 mm | 100 µg/mL (≈ 214 µM) | 9 mm | 5 mm | 8 mm | 50 µg/mL (≈ 107 µM) | 6 mm | 100 µg/mL (≈ 214 µM) | 50 µg/mL (≈ 107 µM) | > 100 µg/mL |
| O=C(O)c1cn(C2CC2)c2cc(N3CCNCC3)c(F)cc2c1=O [CIPROFLOXACIN] | – | – | – | – | – | – | – | – | 12.5 µg/mL (≈ 37.7 µM) | 39 mm | 9 mm | 25 µg/mL (≈ 75.4 µM) | 24 mm | 8 mm | 17 mm | 25 µg/mL (≈ 75.4 µM) | 9 mm | 20 µg/mL (≈ 60.4 µM) | 18 µg/mL (≈ 54.3 µM) | 50 µg/mL (≈ 151 µM) |
| COc1ccc(C2ONC3=C2C(c2ccccc2)N(Cc2ccccc2)C2CCCCC32)cc1 (stereo not given) | 100 µg/mL (≈ 221 µM) | 14 mm | 50 µg/mL (≈ 110 µM) | 12 mm | 3 mm | 50 µg/mL (≈ 110 µM) | > 100 µg/mL | 7 mm | 100 µg/mL (≈ 221 µM) | 11 mm | 6 mm | 50 µg/mL (≈ 110 µM) | 7 mm | 4 mm | 14 mm | 100 µg/mL (≈ 221 µM) | 5 mm | 100 µg/mL (≈ 221 µM) | 25 µg/mL (≈ 55.2 µM) | 100 µg/mL (≈ 221 µM) |
